Experiment [1] has as its system Chinese cabbage soft rot. Nature of the experiment: Test for disease control of Chinese cabbage, field (Example 4 / Comparative example 3). Also noted: key to Disease incidence rate: % of examined plants diseased; key to Disease control value: (1 − treated/untreated severity)×100; 100 = full control; key to Disease severity: severity index 0–100 from disease classes 0–4 (sum/(plants×4)×100). As to conditions: for Disease incidence rate / Disease severity / Disease control value: 64 days; for Disease control value: vs untreated plot. Format: in vivo, Erwinia carotovora. From the text: (§1) (Disease incidence rate)=[(number of diseased plants)/(number of plants examined)]*100
(§2) (Disease severity)={S [(number of diseased plants in each class into which the plants are classified according to the degree of disease)*(disease index)]/[(number of plants examined)*4]}*100
(§3) (Disease control value)={1-[(Disease severity in treated plot)/(Disease severity in untreated plot)]}*100
(§4) Incidentally, the evaluation criteria for the disease index are as follows. • (Disease index) • 0: No lesion • 1: Lesions appear only in part of outer leaves (shipment can be made). • 2: Lesions appear in outer leaves and part of head leaves (the damaged part is removed and shipment as a small size plant can be made, rated Grade B). • 3: Lesions appear in most head leaves or more (shipment cannot be made). • 4: Lesions appear in the entire plant and the plant dies.
(§5) Preparation was performed using 500 g/L of 3-chloro-N-(3-chloro-5-trifluoromethyl-2-pyridyl)-alpha,alpha,alpha-trifluoro-2,6-dinit ro-p-toluidine (fluazinam, Frowncide SC (trade name), manufactured by Ishihara Sangyo Kaisha, Ltd.) such that the amount of the active ingredient was 62.5 g ai/10 a (125 mL product/10 a), 125 g ai/10 a (250 mL product/10 a), and 250 g ai/10 a (500 mL product/10 a), and each amount of dilution water was 150 L/10 a.
(§6) A mulch-sheet for agricultural use was spreaded on soil, and planting holes for settlement (diameter: about 5 cm) were made, and then, the spray solution prepared in the above was sprayed onto the planting holes such that the amount of treated active ingredient was 0.0625 g/m^2 (150 L/10 a) in the case of the spray solution containing the active ingredient at 62.5 g ai/10 a, 0.125 g/m^2 (150 L/10 a) in the case of the spray solution containing the active ingredient at 125 g ai/10 a, and 0.25 g/m^2 (150 L/10 a) in the case of the spray solution containing the active ingredient at 250 g ai/10 a, followed by air-drying. Then, seedlings of Chinese cabbage (cultivar: Harebutai 65) grown for 4 weeks in a cell tray (128 holes/nursery box) were planted such that 19 seedlings were planted in one test plot having an area of 2.4 m^2 with two replications.
(§7) Preparation was performed by diluting streptomycin (Mycin 20 wettable powder (trade name), manufactured by Hokko Chemical Industry Co., Ltd.) with water to 1/1000.
In a field covered with a mulch-sheet for agricultural use, seedlings of Chinese cabbage (cultivar: Harebutai 65) grown in a cell tray were planted, in the same manner as in Example 4, and foliage application was performed with a sprayer by spraying the spray solution of streptomycin prepared in (1) (spraying amount per application: 300 L/10 a) twice (27 days and 48 days after the planting of the seedlings).
The degree of disease incidence was examined for all the plants in each test plot 64 days after the start of the test, and the disease severity and the disease control value were evaluated. Incidentally, the disease severity and the disease control value were obtained in the same manner as described above.

The test system of experiment [2] is Chinese cabbage soft rot. Briefly: Test for disease control of Chinese cabbage, field (Example 3 / Comparative example 2). Type of experiment: in vivo, Erwinia carotovora. Set-up: key to Disease incidence rate: % of examined plants diseased; key to Disease control value: (1 - severity treated/severity untreated) x 100; key to Disease severity: severity index 0-100 from disease index 0-4 weighted counts. The conditions noted are these: for Disease incidence rate / Disease severity / Disease control value: 54 days; for Disease control value: vs untreated plot.
Text: as §1, §2, §3, §4, §5
as §6, with “about 9” for “about 5”, “(cultivar: Musou)” for “(cultivar: Harebutai 65)”, “that 30” for “that 19”, “of 6” for “of 2.4”
as §7
In a field covered with a mulch-sheet for agricultural use, seedlings of Chinese cabbage (cultivar: Musou) grown in a cell tray were planted, in the same manner as in Example 3, and foliage application was performed by spraying the spray solution of streptomycin prepared in (1) (spraying amount per application: 300 L/10 a) three times (13 days, 20 days, and 27 days after the planting of the seedlings).
The degree of disease incidence was examined for all the plants in each test plot 54 days after the start of the test, and the disease severity and the disease control value were evaluated. Incidentally, the disease severity and the disease control value were obtained in the same manner as described above.

Experiment [3] concerns Erwinia carotovora (potato Erwinia carotovora). Briefly: Test for growth inhibition of potato Erwinia carotovora (PSA medium plate). Type of experiment: cell-based. The conditions noted are these: for Growing state of Erwinia carotovora (formed colonies): PSA medium, 25 degrees C., 4 days, two plates per cell. How it is done:
Reference test example: Test for growth inhibition of potato Erwinia carotovora
A test for growth inhibition of Erwinia carotovora in the case of direct application of the control agent to Erwinia carotovora was performed. To previously melted PSA medium (55 degrees C.), a predetermined amount of a pesticide 3-chloro-N-(3-chloro-5-trifluoromethyl-2-pyridyl)-alpha,alpha,alpha-trifluoro-2,6-dinit ro-p-toluidine (fluazinam, Frowncide SC (trade name), manufactured by Ishihara Sangyo Kaisha, Ltd.), ethaboxam wettable powder (Ethaboxam, Gardian (trade name), manufactured by LG Chemical), or streptomycin (Mycin wettable powder (trade name), manufactured by Hokko Chemical Industry Co., Ltd.) and a suspension of Erwinia carotovora (potato Erwinia carotovora) were added and the resulting mixture was stirred well, and then, poured in a plate. Then, the plate was cultured at 25 degrees C. for 4 days, and the growing state of Erwinia carotovora was examined. Thereafter, the formed colonies were examined according to the following three criteria. • +: Equal to the colonies of the untreated group • Plus or minus: Apparently less than the colonies of the untreated group • −: Almost no colonies

Setting [4] is: 62.5 g ai/10 a, 150 L/10 a onto planting holes, Harebutai 65, Average.
Where [5] appears, read: 125 g ai/10 a, 150 L/10 a onto planting holes, Harebutai 65, Average.
Setting [6] is: 250 g ai/10 a, 150 L/10 a onto planting holes, Harebutai 65, Average.
Where [7] appears, read: 250 g ai/10 a, 150 L/10 a onto planting holes, Harebutai 65, single replications I-II.
[8] abbreviates: 62.5 g ai/10 a, 150 L/10 a onto planting holes, Musou, Average.
The mark [9] stands for this setting: 125 g ai/10 a, 150 L/10 a onto planting holes, Musou, Average.
Where [10] appears, read: 125 g ai/10 a, 150 L/10 a onto planting holes, Musou, single replications I-II.
Where [11] appears, read: 250 g ai/10 a, 150 L/10 a onto planting holes, Musou, Average.
The mark [12] stands for this setting: 250 g ai/10 a, 150 L/10 a onto planting holes, Musou, single replications I-II.
Where [13] appears, read: 1/1000 dilution, foliage application twice, Harebutai 65, Average.
Setting [14] is: 1/1000 dilution, foliage application three times, Musou, Average.

Several values for one entry are separate records, joined by “and”; a condition that tells them apart may be missing. Equal entries are not always repeated.

With `O=[N+]([O-])c1cc(C(F)(F)F)c(Cl)c([N+](=O)[O-])c1Nc1ncc(C(F)(F)F)cc1Cl` [Fluazinam, 3-chloro-N-(3-chloro-5-trifluoromethyl-2-pyridyl)-alpha,alpha,alpha-trifluoro-2,6-dinit ro-p-toluidine], the Disease incidence rate is 44.7 with Chinese cabbage soft rot [1] (setting [4]); 36.8 and 52.6 in the experiment on Chinese cabbage soft rot [1] (62.5 g ai/10 a, 150 L/10 a onto planting holes, cultivar Harebutai 65, single replications I-II); 36.1 with Chinese cabbage soft rot [1] (setting [5]); 31.2 in the experiment with Chinese cabbage soft rot [1] (setting [6]); 23.5 and 38.9 in the experiment on Chinese cabbage soft rot [1] (setting [7]); 100 in the experiment with Chinese cabbage soft rot [2] (setting [8]). Also, the Disease incidence rate with Chinese cabbage soft rot [2] (62.5 g ai/10 a, 150 L/10 a onto planting holes, cultivar Musou, single replications I-II) is 100; with Chinese cabbage soft rot [2] (setting [9]), 100; in the experiment on Chinese cabbage soft rot [2] (setting [10]), 100; with Chinese cabbage soft rot [2] (setting [11]) it was 83.3; in the experiment with Chinese cabbage soft rot [2] (setting [12]), 73.3 and 93.3. The Disease severity with Chinese cabbage soft rot [1] (setting [4]) is 13.8; in the experiment on Chinese cabbage soft rot [1] (62.5 g ai/10 a, 150 L/10 a onto planting holes, Harebutai 65, single replications I-II), 9.2 and 18.4; in the experiment with Chinese cabbage soft rot [1] (setting [5]), 10.5; with Chinese cabbage soft rot [1] (setting [6]), 8.5; with Chinese cabbage soft rot [1] (setting [7]), 5.9 and 11.1; in the experiment with Chinese cabbage soft rot [2] (setting [8]), 32.1. Also, the Disease severity in the experiment on Chinese cabbage soft rot [2] (62.5 g ai/10 a, 150 L/10 a onto planting holes, Musou, single replications I-II) was 26.7 and 37.5; in the experiment on Chinese cabbage soft rot [2] (setting [9]), 30.9; in the experiment on Chinese cabbage soft rot [2] (setting [10]), 33.3 and 28.4; in the experiment on Chinese cabbage soft rot [2] (setting [11]) it was 25; with Chinese cabbage soft rot [2] (setting [12]), 20 and 30. The Disease control value in the experiment with Chinese cabbage soft rot [1] (62.5 g ai/10 a, 150 L/10 a onto planting holes, Harebutai 65) worked out at 56.3; in the experiment with Chinese cabbage soft rot [1] (125 g ai/10 a, 150 L/10 a onto planting holes, Harebutai 65) it was 66.8; in the experiment with Chinese cabbage soft rot [1] (250 g ai/10 a, 150 L/10 a onto planting holes, Harebutai 65), 73.1; with Chinese cabbage soft rot [2] (62.5 g ai/10 a, 150 L/10 a onto planting holes, Musou) it was 28.7; in the experiment on Chinese cabbage soft rot [2] (125 g ai/10 a, 150 L/10 a onto planting holes, Musou), 31.3; with Chinese cabbage soft rot [2] (250 g ai/10 a, 150 L/10 a onto planting holes, Musou), 44.4. Moreover, the “Control effect on Chinese cabbage soft rot compared with foliage application of streptomycin (in words)” value in the experiment with Chinese cabbage soft rot [1] (Table 4 test, moderate incidence conditions, even at 62.5 g ai/10 a or 125 g ai/10 a) was “a higher control effect”; in the experiment with Chinese cabbage soft rot [2] (Table 3 test, moderate incidence conditions, even at 62.5 g ai/10 a or 125 g ai/10 a), “a higher control effect”. Besides, the “Growing state of Erwinia carotovora (formed colonies)” value in experiment [3] (Active ingredient concentration 100 ppm) was “+, +”; in experiment [3] (Active ingredient concentration 500 ppm) it was “+, +”; in experiment [3] (Active ingredient concentration 1000 ppm), “±, ±”. Moreover, in experiment [3] (active ingredient concentration of 1000 ppm, direct application), the “Growth inhibition of Erwinia carotovora (in words)” value is on record as “did not inhibit the growth”.

For the molecule `[H]/N=C(/N)N[C@H]1[C@H](O)[C@@H](O)[C@H](O[C@@H]2O[C@@H](C)[C@](O)(C=O)[C@H]2O[C@@H]2O[C@@H](CO)[C@H](O)[C@@H](O)[C@@H]2NC)[C@@H](N/C(N)=N\[H])[C@@H]1O` [Streptomycin, streptomycin], the Disease incidence rate in the experiment with Chinese cabbage soft rot [1] (1/1000 dilution, foliage application 300 L/10 a twice (27 and 48 days), Harebutai 65, single replications I-II) is 44.4 and 63.2; with Chinese cabbage soft rot [1] (setting [13]), 53.8; in the experiment with Chinese cabbage soft rot [2] (1/1000 dilution, foliage application 300 L/10 a three times (13, 20, 27 days), Musou, single replications I-II), 100; in the experiment with Chinese cabbage soft rot [2] (setting [14]), 100. Moreover, the Disease severity is 14.9 with Chinese cabbage soft rot [1] (setting [13]); 13.9 and 15.8 in the experiment with Chinese cabbage soft rot [1] (1/1000 dilution, foliage application twice, Harebutai 65, single replications I-II); 36.7 in the experiment with Chinese cabbage soft rot [2] (setting [14]); 32.5 and 40.8 in the experiment with Chinese cabbage soft rot [2] (1/1000 dilution, foliage application three times, Musou, single replications I-II). Further, the Disease control value in the experiment on Chinese cabbage soft rot [1] (1/1000 dilution, foliage application twice, Harebutai 65) was found to be 52.8; in the experiment on Chinese cabbage soft rot [2] (1/1000 dilution, foliage application three times, Musou), 18.4. Also, the “Growing state of Erwinia carotovora (formed colonies)” value is “−, −” in experiment [3] (Active ingredient concentration 1 ppm) and “−, −” in experiment [3] (Active ingredient concentration 10 ppm).

For the origin of these results see patent publication US20120088803A1, “CONTROL AGENT FOR SOFT ROT AND CONTROL METHOD FOR THE SAME” (Ishihara Sangyo Kaisha, Ltd, priority 2009, published 2012).
